Test results taken from patent publication US7241785B2, “Five-membered heterocyclic alkanoic acid derivative” (Takeda Pharmaceutical Company Limited, priority 2001, dated 2007).
pEC50: −log10 of the molar value.

Legend:
[1] = molecular target: T1, PPARδ-RXRα heterodimer (Homo sapiens, UniProt Q03181); experiment: PPARδ-RXRα heterodimer ligand activity (luciferase reporter, PPARδ:RXRα:4ERPP/CHO-K1 cells); assay type: cell-based; parameters: expressed in transfected cells; conditions: concentration for 50% of maximum fold induction of luciferase, 48 hrs
T1 sequence (Q03181 1-441): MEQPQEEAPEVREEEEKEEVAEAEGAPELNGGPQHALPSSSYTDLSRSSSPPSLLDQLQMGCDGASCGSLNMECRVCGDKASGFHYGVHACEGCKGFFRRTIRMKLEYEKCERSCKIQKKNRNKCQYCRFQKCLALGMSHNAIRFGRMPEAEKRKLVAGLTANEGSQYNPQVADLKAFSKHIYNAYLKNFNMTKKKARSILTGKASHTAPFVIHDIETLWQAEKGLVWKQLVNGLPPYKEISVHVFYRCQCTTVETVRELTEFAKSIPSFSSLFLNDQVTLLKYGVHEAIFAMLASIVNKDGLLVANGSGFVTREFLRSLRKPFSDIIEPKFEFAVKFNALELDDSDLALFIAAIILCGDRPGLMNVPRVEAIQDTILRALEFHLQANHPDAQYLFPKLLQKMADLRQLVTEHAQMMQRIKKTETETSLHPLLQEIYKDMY
T1 sequence (P19793 1-462 partner): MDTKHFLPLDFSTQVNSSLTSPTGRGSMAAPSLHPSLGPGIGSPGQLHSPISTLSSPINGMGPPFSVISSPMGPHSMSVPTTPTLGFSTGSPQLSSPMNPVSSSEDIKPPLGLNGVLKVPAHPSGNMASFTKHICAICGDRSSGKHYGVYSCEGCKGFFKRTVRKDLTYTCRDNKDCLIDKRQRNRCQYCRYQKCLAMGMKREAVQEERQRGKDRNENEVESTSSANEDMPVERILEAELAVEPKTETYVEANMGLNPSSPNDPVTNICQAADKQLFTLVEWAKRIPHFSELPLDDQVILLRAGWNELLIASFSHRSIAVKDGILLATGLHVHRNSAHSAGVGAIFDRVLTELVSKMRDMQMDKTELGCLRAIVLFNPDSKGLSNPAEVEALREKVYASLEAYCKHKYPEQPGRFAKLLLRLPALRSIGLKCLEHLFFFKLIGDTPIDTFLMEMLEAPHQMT
Method: PPARδ-RXRα Heterodimer Ligand Activity
PPARδ:RXRα:4ERPP/CHO-K1 cells obtained in Reference Example 5a were cultured in HAM F12 medium (produced by NISSUI SEIYAKU) containing 10% fetal bovine serum (produced by Life Technologies, Inc., USA) and then seeded in a 96-well white plate (produced by Corning Costar Corporation, USA) at the density of 2×10^4 cells/well, and cultured in a CO2 gas incubator at 37° C. overnight.
After washing the 96 well white plate with PBS (Phosphate-buffered saline), 90 μl of HAM F12 medium containing 0.1% fatty acid-free bovine serum albumin (BSA) and 10 μl of test compound were added, and the cells were cultured in a CO2 gas incubator at 37° C. for 48 hrs. After removing the medium, 40 μl of PicaGene 7.5 (produced by Wako Pure Chemical Industries, Ltd.) was added. After stirring, the luciferase activity was determined using Lumistar (produced by BMG Labtechnologies GmbH, Germany).
The fold induction was calculated from the luciferase activity of each test compound when the luciferase activity in the non-treatment group is taken as 1. The values of the test compound concentration and the fold induction were analyzed using PRISM 2.01 (produced by GraphPad Software Inc. USA) to calculate the EC50 values, the effective concentration of a test compound for 50% of the maximum fold induction. […]

Structure (SMILES): Cc1oc(-c2ccccc2)nc1COc1ccc(Sc2nc(-c3ccccc3)c(CCC(=O)O)o2)cc1 [Example 10, 3-[2-[4-(5-methyl-2-phenyl-4-oxazolylmethoxy)phenylthio]-4-phenyl-5-oxazolyl]propionic acid]
- pEC50 [1]: 5.68
- melting point: 136 to 137 °C
